Measurements published in patent US8501400B2, “Methods and compositions for determining the pathogenic status of infectious agents” (priority 2007, dated 2013).

Experiments:
H37Rv cells [1] = experiment: Sp6 SML-phage drug susceptibility test: SML generation (RT-PCR) in drug-treated Mtb; format: cell-based; conditions: 0.2 μg/ml INH, 2 μg/ml STR or 7.5 μg/ml EMB, Sp6 SML-phage MOI of 1 for 4 hr
H37Rv cells [2] = experiment: Effect of mucolytic agents on phage infection and SML generation; format: cell-based, Mtb; conditions: equal volume of 0.5% NALC/2.9% NaCitrate or 200 mM TCEP/2.9% NaCitrate, one hour at 37° C., then SML-phage 4 hr; HiSalt conditions not given
[3] = 16 hr treatment at 37° C. with 2 μg/ml RIF
[4] = 40 hr treatment at 37° C. with 2 μg/ml RIF

SMILES	SML generation after drug treatment (H37Rv cells [1]; [3])	SML generation after drug treatment (H37Rv cells [1]; [4])	Effect on phage infection and SML generation (H37Rv cells [2])
CC[C@@H](CO)NCCN[C@@H](CC)CO [EMB, Ethambutol]	some detectable SML synthesis	completely abolished	–
NNC(=O)c1ccncc1 [INH, isoniazid]	some detectable SML synthesis	completely abolished	–
CC(=O)N[C@@H](CS)C(=O)O [NALC, N-acetyl-L-cysteine]	–	–	no effect
[H]/N=C(/N)N[C@H]1[C@H](O)[C@@H](O)[C@H](O[C@@H]2O[C@@H](C)[C@](O)(C=O)[C@H]2O[C@@H]2O[C@@H](CO)[C@H](O)[C@@H](O)[C@@H]2NC)[C@@H](N/C(N)=N\[H])[C@@H]1O [STR, Streptomycin]	no detectable SML	no detectable SML	–
O=C(O)CCP(CCC(=O)O)CCC(=O)O [TCEP, Tris-Carboxyethylphosphine]	–	–	completely abolishes SML generation
